Patent publication US20230210984A1, “ADOPTIVE IMMUNOTHERAPY” (The Council of the Queensland Institute of Medical Research, priority 2019, published 2023)
Read-outs that look alike come from different tables or passages of the source.

Tests used:
[1] = tested on: EBV-associated cell lines (nasopharyngeal and gastric cancer cell lines); experiment: MTS cell viability assay, IC50 of inhibitors; type: cell-based; conditions: for IC50: read-out: IC50 (~50% reduction in cell viability); for IC25 value (sub IC50 value): concentration chosen for in vitro combination treatment
Description: FIG. 9: Determining the IC50 value of MEK1/2 inhibitors. Representation of the cell viability performed using MTS assay after the indicated cell lines were incubated with 0.1 μM-5 μM of selumatinib (left panel) and trametinib (right panel) for 48 hours. The data are represented as the mean±SD from three independent experiments.
FIG. 14: Determining the IC50 value of JQ1 inhibitors. Representation of the cell viability performed using MTS assay after the indicated cell lines were incubated with 0.5 μM-10 μM of JQ1 for 48 hours. The data are represented as the mean±SD from three independent experiments.
Cell viability assay was performed using the CellTiter 96® AQueous one cell viability assay reagent (Promega, WI, USA) for three biological replicates per EBV-associated cancer cell lines in triplicate. Briefly, the cancer cells (target cells) were plated at a density of 5000 cells per well in an overall media volume of 200 μL on a 96-well tissue-culture plate (BD Falcon™). The effector AdE1-LMPpoly transfected T cells were freshly thawed in RPMI-1640 with 10% FCS and 120 IU/mL of recombinant IL-2 at 37° C. and […]. Post 24 hrs of plating and incubation at 37° C. and […], the effector T cells were mixed to the target cells at a gradient ratio of effector to target (E:T) of 5:1-100:1. The exact number of T cells (To) used per E:T ratio (ET) was independently used as control alongside PBS treated target cells (Es) and sole media (M0). After 24 hrs of incubation at 37° C. and […], MTS was added to each well (1:100 dilution in media) and was incubated for 1 hour following which the plate was centrifuged at 1,200×g at room temperature for 5 min and absorbance of the mixture at an optical density of 490 nm was measured via a microplate reader. The relative cell viability was calculated using the following formula: […]
To determine the upregulation of MAPK pathway in EBV-associated solid cancers, we first identified the IC50 value of MEK1/2 inhibitors (AZD6244 or selumetanib and trematinib) across nasopharyngeal and gastric cancer cell lines (with drug concertation ranging from 0.1 μM-5 μM). […] In the next set of experiments, we wanted to determine the impact of MEK1/2 inhibition in combination with allogeneic EBV-specific T cells on EBV-associated solid cancers. As such, we treated the respective EBV-associated cell lines (both gastric and nasopharyngeal) individually or in combination with MEK1/2 inhibitors (both selumetanib and trematinib) and EBV-specific T cells.
Similarly, we targeted MYC-dependent cancer intrinsic pathway using JQ1 inhibitor by first determining the IC50 value of the inhibitor across nasopharyngeal and gastric cancer cell lines (with drug concertation ranging from 0.5 μM-10 μM). […] To characterized the impact of JQ1 inhibition in combination with allogeneic EBV-specific T cells on EBV-associated cancer cells, we used IC25 value JQ1 (2.5 μM) alongside an effector to target ratio of 25:1 of the respective HLA matched allogeneic EBV-specific T cells in vitro. […] We also performed phenotypic characterization, using flow cytometry, of SNU719 and C666.1 cells after 16 hours of individual and dual treatment in vitro.

SNU719 cells [2] = experiment: MTS cell viability, inhibitor combined with EBV-specific T cells (Example 2); type: cell-based; conditions: combination with EBV-specific T cells (25:1) vs individual treatment, 48 hrs; AZD6244 0.5 μM, trematinib 1.0 μM, JQ1 5.0 μM
Description: Cell viability assay was performed using the CellTiter 96® AQueous one cell viability assay reagent (Promega, WI, USA) for three biological replicates per EBV-associated cancer cell lines in triplicate. Briefly, the cancer cells (target cells) were plated at a density of 5000 cells per well in an overall media volume of 200 μL on a 96-well tissue-culture plate (BD Falcon™). The effector AdE1-LMPpoly transfected T cells were freshly thawed in RPMI-1640 with 10% FCS and 120 IU/mL of recombinant IL-2 at 37° C. and 50% CO2. Post 24 hrs of plating and incubation at 37° C. and 50% CO2, the effector T cells were mixed to the target cells at a gradient ratio of effector to target (E:T) of 5:1-100:1. The exact number of T cells (To) used per E:T ratio (ET) was independently used as control alongside PBS treated target cells (Es) and sole media (M0). After 24 hrs of incubation at 37° C. and 50% CO2, MTS was added to each well (1:100 dilution in media) and was incubated for 1 hour following which the plate was centrifuged at 1,200×g at room temperature for 5 min and absorbance of the mixture at an optical density of 490 nm was measured via a microplate reader. The relative cell viability was calculated using the following formula: […]

SNU719 cells [3] = experiment: Annexin V binding assay, inhibitor combined with EBV-specific T cells; type: cell-based; conditions: combination with EBV-specific T cells (25:1) vs individual treatment, 48 hrs; AZD6244 0.5 μM, trematinib 1.0 μM, JQ1 5.0 μM
Description: (§1) We treated SNU719 cells (gastric cancer cells) with MEK1/2 inhibitor (AZD6244 (or selumetanib) and trematinib) at concentration of 0.5 μM and 1.0 μM respectively, as individual treatment or in combination with EBV-specific T cells (25:1) as effector to target ratio.
We treated SNU719 cells with JQ1 inhibitor at concentration of 5.0 μM, as individual treatment or in combination with EBV-specific T cells (25:1) as effector to target ratio.

SNU719 cells [4] = experiment: Xcellegence growth curve (Example 2); type: cell-based; conditions: dual combination with EBV-specific T cells vs individual treatment
Description: P-values were calculated using one-way ANOVA: *p<0.05, **p<0.01, ***p<0.001 and ****p<0.0001.
as §1

[5] = tested on: C17, C666.1, SNU719 and YCCLE1 cells; experiment: MTS cell viability, inhibitor combined with HLA matched allogeneic EBV-specific T cells (Example 3); type: cell-based; conditions: combination with HLA matched EBV-specific T cells 25:1 vs individual treatment, 48 hrs; MEK1/2 inhibitors 1 μM, JQ1 2.5 μM
Description: The data are represented as the mean±SD from three independent experiments. P-values were calculated using one-way ANOVA: ns=not significant, *=p<0.05, **=p<0.01, ***=p<0.001 and ****=p<0.0001.
The data are represented as the mean±SD from three independent experiments.

[6] = tested on: SNU719 derived xenograft tumour; experiment: SNU719 xenograft, selumatinib and TIG-001 in vivo; set-up: species or system NRG mice
Description: FIG. 19: Assessment of therapeutic efficacy of dual combination of selumatinib and allogeneic EBV-specific cytotoxic T cells in vivo. (A) The impact of the dual combination of selumatinib and allogeneic T cells (TIG-001) on the outgrowth of EBV-positive SNU719 xenografts in NRG mice was assessed. Tumour-bearing mice were treated with two doses of HLA-matched T cells (2×10^7 T cells per dose per mouse indicated by black arrow) and selumatinib (12.5 mg/Kg) orally for continuous 14 days, either individually or in combination. The growth of each xenograft is represented as the mean tumour area±SD from n=9 mice/group. (B) Gross morphology of the tumours isolated from the mice of indicated treatment groups. (C) Representation of tumour weight described in (B) from the mice of indicated treatment groups. The data are represented as the mean±SD from n=3 mice per group. P-values were calculated using one-way ANOVA. (D) Representation of viable percentage of tumour infiltrates observed across individually treated allogeneic T cells (TIG-001) and in combination with selumatinib as determined by CD45, CD3 and CD8 expression using flow cytometry. P-values were calculated using Student T test. (E) Kaplan-Meier overall survival analysis of the mice bearing EBV-associated tumours as described in (A) following individual and combination treatment of selumatinib and allogeneic T cells. The animals' survival (n=6 mice/group) was monitored over the indicated period of time and statistical significance was analysed by log-rank test: ns=not significant, *p<0.05, **p<0.01, ***p<0.001 and ****p<0.0001.
In next set of experiments, we wanted to investigate the effect of the above described small molecules in combination of HLA matched allogeneic EBV-specific T cells in vivo. We used the combination of selumatinib and HLA-matched T cell product (TIG-001) to treat SNU719 derived xenograft tumour model in female NRG mice. Once the xenograft reached the size of ˜25 mm^2, we treated the mice with two infusion of TIG-001 (2×10^7 cells per infusion) individually and in combination with daily dosage selumatinib (12.5 mg/kg), administered orally for 14 days. […] Next, we phenotyped the infiltration of the human origin lymphocytes in these tumours using flow cytometry.

## Cn1cnc2c(F)c(Nc3ccc(Br)cc3Cl)c(C(=O)NOCCO)cc21 [selumetanib]
[1]; 48 h
  IC50: ~2500 nM
[1]
  IC25 value (sub IC50 value): 1000 nM
SNU719 cells [2]
  cell viability of SNU719: significantly reduced
SNU719 cells [3]
  binding of Annexin V among SNU719 cells: significantly higher binding of Annexin V
SNU719 cells [4]
  rate of cell death (Xcellegence): faster cell death
[5]
  cell viability: significantly reduced
[6]; combination with TIG-001 vs individually treated T cell group
  number of viable CD45+CD3+CD8+ cells in tumours: significantly more
[6]; dual combination with TIG-001 vs individual treatment group
  survival rate: better survival rate
[6]; dual combination with TIG-001 vs individual treatment, when control reached 150 mm^2
  size of the tumours: significantly smaller
[6]; selumatinib 12.5 mg/kg orally 14 days plus two infusions of TIG-001 (2×10^7 cells) vs individual treatment
  tumour progression: significant reduction

## Cc1sc2c(c1C)C(c1ccc(Cl)cc1)=N[C@@H](CC(=O)OC(C)(C)C)c1nnc(C)n1-2 [JQ1]
[1]; EBV-associated nasopharyngeal and gastric cancer cell lines, MTS assay, 48 hours, compared to NPC43 (EBV-)
  IC50: ~2500 nM
[1]
  IC25 value (sub IC50 value): 2500 nM
SNU719 cells [2]
  cell viability of SNU719: significantly reduced
SNU719 cells [3]
  binding of Annexin V among SNU719 cells: significantly higher binding of Annexin V
[5]
  cell viability: significantly reduced
